In this experiment the target is Human recombinant carboxy-terminal his-tagged LDHA (amino acids 2-332) (Homo sapiens, UniProt P00338). Put plainly: LDHA enzyme inhibition assay (NADH fluorescence). The conditions noted are these: LDHA IC50 (μM), 1 nM LDHA, NADH and pyruvate, stereochemistry of tested sample given.
Turning to `Cc1cc(Oc2cccc(C3(c4ccsc4)CC(=O)C(Sc4ccccc4Cl)C(=O)N3)n2)ccc1F` (centres unmarked) [Example 51, 5-((2-chlorophenyl)thio)-6′-(4-fluoro-3-methyl-phenoxy)-4-hydroxy-2-(thiophen-3-yl)-2,3-dihydro-[2,2′-bipyridin]-6(1H)-one], the IC50 came to 0.149 µM.
The value for `CN(C)c1cccc(C2(c3ccsc3)CC(=O)C(Sc3ccccc3Cl)C(=O)N2)n1` (centres unmarked) [Example 85, 3-((2-chlorophenyl)thio)-6-(6-(dimethylamino)pyridin-2-yl)-6-(thiophen-3-yl)piperidine-2,4-dione] was 0.018 µM; that for `O=C1CC(c2ccsc2)(c2cccc(Cc3ccc(F)cc3F)n2)NC(=O)C1Sc1ccccc1Cl` (centres unmarked) [Example 258, 3-((2-chlorophenyl)thio)-6-(6-(2,4-difluorobenzyl)pyridin-2-yl)-6-(thiophen-3-yl)piperidine-2,4-dione] was 0.087 µM; that for `O=C1CC(c2ccsc2)(c2cccc(Oc3cccc4ncccc34)n2)NC(=O)C1Sc1ccccc1Cl` (single isomer, unassigned) [Example 91, 5-((2-chlorophenyl)thio)-4-hydroxy-6′-(quinolin-5-yloxy)-2-(thiophen-3-yl)-2,3-dihydro-[2,2′-bipyridin]-6(1H)-one] was 0.011 µM.
As for `O=C1CC(c2ccsc2)(c2cccc(N3CCc4ccc(CO)cc43)n2)NC(=O)C1Sc1ccccc1Cl` (centres unmarked) [Example 177, 3-(2-chlorophenyl)sulfanyl-6-[6-[6-(hydroxymethyl)indolin-1-yl]-2-pyridyl]-6-(3-thienyl)piperidine-2,4-dione], the half-inhibitory concentration (IC50) was found to be 0.016 µM.
As for `O=C1CC(c2ccsc2)(c2cccc(OC3CCCC3)n2)NC(=O)C1Sc1ccccc1Cl` (centres unmarked) [Example 48, 3-((2-chlorophenyi)lliio)-6-(6-(cyclopentyloxy)pyridin-2-yl)-6-(thiophen-3-yl)piperidine-2 .4-dione], the figure is 0.052 µM; as for `CCC(Nc1cccc(C2(c3ccsc3)CC(=O)C(Sc3ccccc3Cl)C(=O)N2)n1)c1ccc(F)cc1` (centres unmarked) [Example 304, 3-((2-chlorophenyl)thio)-6-(6-((1-(4-fluoro-phenyl)propyl)amino)pyridin-2-yl)-6-(thiophen-3-yl)piperidine-2,4-dione], 0.021 µM; as for `O=C1CC(c2ccsc2)(c2cccc(Sc3ccc(F)cc3)n2)NC(=O)C1Sc1ccccc1Cl` (single isomer, unassigned) [Example 213, 3-(2-chlorophenyl)sulfanyl-6-[6-(4-fluorophenyl)sulfanyl-2-pyridyl]-6-(3-thienyl)piperidine-2,4-dione], 0.034 µM.
On to `O=C1CC(c2ccsc2)(c2cccc(OCC(F)F)n2)NC(=O)C1Sc1ccccc1Cl` (single isomer, unassigned) [Example 254, 3-(2-chlorophenyl)sulfanyl-6-[6-(2,2-difluoroethoxy)-2-pyridyl]-6-(3-thienyl) piperidine-2,4-dione], for which the concentration for half-maximal inhibition (IC50) stood at 0.047 µM.
In the case of `Cc1cnc(N)n1-c1cccc(C2(c3ccsc3)CC(=O)C(Sc3ccccc3Cl)C(=O)N2)n1` (centres unmarked) [Example 278, 6-(6-(2-amino-5-methyl-1H-imidazol-1-yl)pyridin-2-yl)-3-((2-chloro-phenyl)thio)-6-(thiophen-3-yl)piperidine-2,4-dione], the IC50 turned out to be 0.339 µM.
As for `O=C1CC(c2ccsc2)(c2cccc(Oc3cccc(C(F)F)c3)n2)NC(=O)C1Sc1ccccc1Cl` (single isomer, unassigned) [Example 136, 3-(2-chlorophenyl)sulfanyl-6-[6-[3-(difluoro-methyl)phenoxy]-2-pyridyl]-6-(3-thienyl) piperidine-2,4-dione], the figure is 0.222 µM.
The value for `O=C1CC(c2ccsc2)(c2cccc(Oc3ccc(F)c(F)c3)n2)NC(=O)C1Sc1ccccc1Cl` (single isomer, unassigned) [Example 57, 3-(2-chlorophenyl)sulfanyl-6-[6-(3,4-difluoro-phenoxy)-2-pyridyl]-6-(3-thienyl)piperidine-2,4-dione] was 0.086 µM; that for `O=C1CC(c2ccsc2)(c2cccc(OCCC3CCCC3)n2)NC(=O)C1Sc1ccccc1Cl` (single isomer, unassigned) [Example 113, 3-((2-chlorophenyl)thio)-6-(6-(2-cyclopentyl-ethoxy)pyridin-2-yl)-6-(thiophen-3-yl)piperidine-2,4-dione] was 0.014 µM.
The value for `O=C1CCC(COc2cccc(C3(c4ccsc4)CC(=O)C(Sc4ccccc4Cl)C(=O)N3)n2)O1` (single isomer, unassigned) [Example 192, 3-(2-chlorophenyl)sulfanyl-6-[6-[(5-oxotetrahydrofuran-2-yl)methoxy]-2-pyridyl]-6-(3-thienyl)piperidine-2,4-dione] was 0.232 µM.
As to `O=C1CC(c2ccc(OCCCO)cc2)(c2ccsc2)NC(=O)C1Sc1ccccc1Cl` (centres unmarked) [Example 28, 3-(2-chlorophenyl)sulfanyl-6-[4-(3-hydroxypropoxy)phenyl]-6-(3-thienyl)piperidine-2,4-dione], the IC50 amounted to 0.031 µM.
As for `CCOCCOc1cccc(C2(c3ccsc3)CC(=O)C(Sc3ccccc3Cl)C(=O)N2)n1` (single isomer, unassigned) [Example 200, 3-(2-chlorophenyl)sulfanyl-6-[6-(2-ethoxyethoxy)-2-pyridyl]-6-(3-thienyl) piperidine-2,4-dione], the IC50 came out at 0.229 µM.
On to `O=C1CC(c2ccsc2)(c2cccc(Oc3cccnc3)n2)NC(=O)C1Sc1ccccc1Cl` (centres unmarked) [Example 71, 3-((2-chlorophenyl)thio)-6-(6-(pyridin-3-yloxy)pyridin-2-yl)-6-(thiophen-3-yl)piperidine-2,4-dione], for which the concentration for half-maximal inhibition (IC50) turned out to be 0.056 µM.
As to `O=C1CC(c2ccsc2)(c2cccc(Oc3ccc(F)c(C(F)(F)F)c3)n2)NC(=O)C1Sc1ccccc1Cl` (centres unmarked) [Example 123], the 50% inhibitory concentration (IC50) worked out at 0.006 µM.
In the case of `O=C1CC(c2ccsc2)(c2cccc(OC3CCC(O)C3)n2)NC(=O)C1Sc1ccccc1Cl` (single isomer, unassigned) [Example 104, 3-((2-chlorophenyl)thio)-6-(6-((3-hydroxycyclo-pentyl)oxy)pyridin-2-yl)-6-(thiophen-3-yl) piperidine-2,4-dione], the IC50 is 0.118 µM.
As for `O=C1CC(c2ccsc2)(c2cccc(Br)n2)NC(=O)C1Sc1ccccc1Cl` (centres unmarked) [Example 1, 6-(6-bromo-2-pyridyl)-3-(2-chlorophenyl)sulfanyl-6-(3-thienyl)piperidine-2,4-dione], the figure is 0.006 µM; as for `O=C1CC(c2ccsc2)(c2cccc(Oc3cccc(C(F)F)c3)n2)NC(=O)C1Sc1ccccc1Cl` (single isomer, unassigned) [Example 127, 3-(2-chlorophenyl)sulfanyl-6-[6-[3-(difluoromethyl)phenoxy]-2-pyridyl]-6-(3-thienyl)piperidine-2,4-dione], 0.008 µM; as for `O=C1CC(c2ccc(N3CCC(F)(F)CC3)cc2)(c2ccsc2)NC(=O)C1Sc1ccccc1Cl` (centres unmarked) [Example 72, 3-(2-chlorophenyl)sulfanyl-6-[4-(4,4-difluoro-1-piperidyl)phenyl]-6-(3-thienyl)piperidine-2,4-dione], 0.025 µM.
Take `CN1C(=O)C(Sc2ccccc2Cl)C(=O)CC1(c1ccsc1)c1cccc(Oc2ccc(F)cc2)n1` (centres unmarked) [Example 12, 3-(2-chlorophenyl)sulfanyl-6-[6-(4-fluorophenoxy)-2-pyridyl]-1-methyl-6-(3-thienyl)piperidine-2,4-dione]: the 50% inhibitory concentration (IC50) amounted to 0.027 µM.
In the case of `COCC(C)Oc1cccc(C2(c3ccsc3)CC(=O)C(Sc3ccccc3Cl)C(=O)N2)n1` (centres unmarked) [Example 246, 3-(2-chlorophenyl)sulfanyl-6-[6-(2-methoxy-1-methyl-ethoxy)-2-pyridyl]-6-(3-thienyl)piperidine-2,4-dione], the half-maximal inhibitory concentration (IC50) came out at 0.01 µM.
As for `O=C1CC(c2ccsc2)(c2cccc(Oc3cccc4ccncc34)n2)NC(=O)C1Sc1ccccc1Cl` (centres unmarked) [Example 89, 3-(2-chlorophenyl)sulfanyl-6-[6-(8-iso-quinolyloxy)-2-pyridyl]-6-(3-thienyl)piperidine-2,4-dione], the figure is 0.018 µM.
As for `O=C1CC(c2ccsc2)(c2cccc(Oc3ccc(F)c(C(F)F)c3)n2)NC(=O)C1Sc1ccccc1Cl` (centres unmarked) [Example 139, 3-(2-chlorophenyl)sulfanyl-6-[6-[3-(difluoro-methyl)-4-fluoro-phenoxy]-2-pyridyl]-6-(3-thienyl) piperidine-2,4-dione], the figure is 0.009 µM; as for `CC1(COc2cccc(C3(c4ccsc4)CC(=O)C(Sc4ccccc4Cl)C(=O)N3)n2)CC1` (single isomer, unassigned) [Example 158, 3-(2-chlorophenyl)sulfanyl-6-[6-[(1-methylcyclo-propyl)methoxy]-2-pyridyl]-6-(3-thienyl)piperidine-2,4-dione], 0.018 µM.
On to `COc1cc(F)ccc1Oc1cccc(C2(c3ccsc3)CC(=O)C(Sc3ccccc3Cl)C(=O)N2)n1` (centres unmarked) [Example 334, 3-(2-chlorophenyl)sulfanyl-6-[6-(4-fluoro-2-methoxy-phenoxy)-2-pyridyl]-6-(3-thienyl)piperidine-2,4-dione], for which the IC50 was found to be 0.739 µM.
The value for `O=C1CC(c2ccsc2)(c2cccc(OCC3CCCO3)n2)NC(=O)C1Sc1ccccc1Cl` (single isomer, unassigned) [Example 235, 3-(2-chlorophenyl)sulfanyl-6-[6-(tetrahydrofuran-2-ylmethoxy)-2-pyridyl]-6-(3-thienyl)piperidine-2,4-dione] was 0.021 µM; that for `CCC1CN(c2ccc(C3(c4ccsc4)CC(=O)C(Sc4ccccc4Cl)C(=O)N3)cc2)CCO1` (centres unmarked) [Example 66, 3-(2-chlorophenyl)sulfanyl-6-[4-(2-ethylmorpholin-4-yl)phenyl]-6-(3-thienyl) piperidine-2,4-dione] was 0.089 µM; that for `COCCOc1ccc(C2(c3ccsc3)CC(=O)C(Sc3ccccc3Cl)C(=O)N2)cc1` (centres unmarked) [Example 30, 3-(2-chlorophenyl)sulfanyl-6-[4-(2-methoxyethoxy)phenyl]-6-(3-thienyl)piperidine-2,4-dione] was 0.053 µM.
Turning to `O=C1CC(c2ccsc2)(c2cccc(Nc3ccc(F)nc3)n2)NC(=O)C1Sc1ccccc1Cl` [Example 317, (6R)-3-(2-chlorophenyl) sulfanyl-6-[6-[(6-fluoro-3-pyridyl)amino]-2-pyridyl]-6-(3-thienyl) piperidine-2,4-dione], the half-inhibitory concentration (IC50) came to 0.225 µM.

As usually defined, the IC50 is the point on the concentration scale where inhibition reaches its midpoint.
